Read-outs that look alike come from different tables or passages of the source.
Experiments:
[1] = tested on: T lymphocyte; experiment: Cell survival rate (OD) of lymphocytes with JK12A; format: cell-based
[2] = tested on: mice; experiment: Acute toxicity study of JK12A; format: in vivo; settings: dose of 2000 mg/kg
[3] = tested on: T lymphocyte proliferation; experiment: T lymphocyte proliferation, stimulus with Con A (CPM); format: cell-based
[4] = tested on: mice; experiment: Single dose toxicity of JK1303, kidney findings after 14 days; format: in vivo; settings: 14 days after a single dose of 1000 mg/kg
[5] = tested on: mice; settings: after harmful impurities eliminated by the technology of the invention
[6] = acute toxicity test data published at present; cited from earlier work
[7] = Concentration determined 100.000 µM
[8] = Concentration determined 0.41 M
[9] = Concentration determined 1.024 M
[10] = Concentration determined 2.56 M
[11] = Concentration determined 16.0 M
[12] = Concentration determined 0.164 M
[13] = Amount of VC 0, day 0, 25° C. and 40% humidity
[14] = Amount of VC 0, day 7, 25° C. and 40% humidity
[15] = Amount of VC 0, day 15, 25° C. and 40% humidity
[16] = Amount of VC 0, day 30, 25° C. and 40% humidity
[17] = Amount of VC 0, day 60, 25° C. and 40% humidity
[18] = Amount of VC 20%, day 0, 25° C. and 40% humidity
[19] = Amount of VC 20%, day 7, 25° C. and 40% humidity
[20] = Amount of VC 20%, day 15, 25° C. and 40% humidity
[21] = Amount of VC 20%, day 30, 25° C. and 40% humidity
[22] = Amount of VC 20%, day 60, 25° C. and 40% humidity
[23] = Amount of VC 100%, day 0, 25° C. and 40% humidity
[24] = Amount of VC 100%, day 7, 25° C. and 40% humidity
[25] = Amount of VC 100%, day 15, 25° C. and 40% humidity
[26] = Amount of VC 100%, day 30, 25° C. and 40% humidity
[27] = Amount of VC 100%, day 60, 25° C. and 40% humidity
[28] = Amount of VC 500%, day 0, 25° C. and 40% humidity
[29] = Amount of VC 1000%, day 0, 25° C. and 40% humidity
[30] = Amount of VC 10000%, day 0, 25° C. and 40% humidity

CN1C2CNC3=NC(N)=NCC31N(c1ccc(C(=O)NC(CCC(=O)O)C(=O)O)cc1)C2 (centres unmarked) [JK12A]
Cell survival rate [1, 7]: 73% | Mean OD [1, 7]: 0.089 | Cell survival rate [1, 8]: 75% | Mean OD [1, 8]: 0.052 | Cell survival rate [1, 9]: 59% | Mean OD [1, 9]: 0.073 | Cell survival rate [1, 10]: 62% | Mean OD [1, 10]: 0.076 | Cell survival rate ([1]; Concentration determined 6.4 M): 84% | Mean OD ([1]; Concentration determined 6.4 M): 0.103 | Cell survival rate [1, 11]: 92% | Mean OD [1, 11]: 0.113 | Cell survival rate ([1]; Concentration determined […]): 89% | Mean OD ([1]; Concentration determined […]): 0.109 | anatomical findings in liver and kidney [2]: no significant changes | effect on T lymphocyte proliferation [3]: significant inhibitory effect | T cell proliferation Comprehensive evaluation Percent enhancement/inhibition [3, 12]: −8% | T lymphocyte Stimulus with Con A Mean CPM [3, 12]: 40459 CPM | T cell proliferation Comprehensive evaluation Percent enhancement/inhibition [3, 8]: −68% | T lymphocyte Stimulus with Con A Mean CPM [3, 8]: 14073 CPM | T cell proliferation Comprehensive evaluation Percent enhancement/inhibition [3, 9]: −60% | T lymphocyte Stimulus with Con A Mean CPM [3, 9]: 17590 CPM | T cell proliferation Comprehensive evaluation Percent enhancement/inhibition [3, 10]: −42% | T lymphocyte Stimulus with Con A Mean CPM [3, 10]: 25507 CPM | T cell proliferation Comprehensive evaluation Percent enhancement/inhibition ([3]; Concentration determined 6.4 M): −30% | T lymphocyte Stimulus with Con A Mean CPM ([3]; Concentration determined 6.4 M): 30784 CPM | T cell proliferation Comprehensive evaluation Percent enhancement/inhibition [3, 11]: −18% | T lymphocyte Stimulus with Con A Mean CPM [3, 11]: 36061 CPM | T cell proliferation Comprehensive evaluation Percent enhancement/inhibition ([3]; Concentration determined […]): −1% | T lymphocyte Stimulus with Con A Mean CPM ([3]; Concentration determined […]): 43537 CPM

CN1C2CNC3=NC(N)=NCC31N(c1ccc(C(=O)O)cc1)C2 (centres unmarked) [JK1303]
anatomical finding in the renal tubules [4]: a large number of vacuoles | renal toxicity finding [4]: severe renal tubular necrosis

(6S)-5-methyl tetrahydrofolic acid calcium salt [Example 11]
(6S)-5-methyl tetrahydrofolic acid calcium salt content [13]: 99.95% | JK12A content [13]: 0.03% | (6S)-5-methyl tetrahydrofolic acid calcium salt content [14]: 99.90% | JK12A content [14]: 0.06% | (6S)-5-methyl tetrahydrofolic acid calcium salt content [15]: 99.85% | JK12A content [15]: 0.12% | (6S)-5-methyl tetrahydrofolic acid calcium salt content [16]: 99.63% | JK12A content [16]: 0.25% | (6S)-5-methyl tetrahydrofolic acid calcium salt content [17]: 99.40% | JK12A content [17]: 0.46% | (6S)-5-methyl tetrahydrofolic acid calcium salt content [18]: 99.95% | JK12A content [18]: 0.03% | (6S)-5-methyl tetrahydrofolic acid calcium salt content [19]: 99.94% | JK12A content [19]: 0.04% | (6S)-5-methyl tetrahydrofolic acid calcium salt content [20]: 99.89% | JK12A content [20]: 0.08% | (6S)-5-methyl tetrahydrofolic acid calcium salt content [21]: 99.71% | JK12A content [21]: 0.17% | (6S)-5-methyl tetrahydrofolic acid calcium salt content [22]: 99.50% | JK12A content [22]: 0.22% | (6S)-5-methyl tetrahydrofolic acid calcium salt content [23]: 99.95% | JK12A content [23]: 0.03% | (6S)-5-methyl tetrahydrofolic acid calcium salt content [24]: 99.94% | JK12A content [24]: 0.03% | (6S)-5-methyl tetrahydrofolic acid calcium salt content [25]: 99.90% | JK12A content [25]: 0.05% | (6S)-5-methyl tetrahydrofolic acid calcium salt content [26]: 99.90% | JK12A content [26]: 0.05% | (6S)-5-methyl tetrahydrofolic acid calcium salt content [27]: 99.86% | JK12A content [27]: 0.10% | (6S)-5-methyl tetrahydrofolic acid calcium salt content [28]: 99.95% | JK12A content [28]: 0.03% | (6S)-5-methyl tetrahydrofolic acid calcium salt content (Amount of VC 500%, day 7, 25° C. and 40% humidity): 100.00% | (6S)-5-methyl tetrahydrofolic acid calcium salt content (Amount of VC 500%, day 15, 25° C. and 40% humidity): 100.00% | (6S)-5-methyl tetrahydrofolic acid calcium salt content (Amount of VC 500%, day 30, 25° C. and 40% humidity): 99.98% | (6S)-5-methyl tetrahydrofolic acid calcium salt content (Amount of VC 500%, day 60, 25° C. and 40% humidity): 99.96% | (6S)-5-methyl tetrahydrofolic acid calcium salt content [29]: 99.95% | JK12A content [29]: 0.03% | (6S)-5-methyl tetrahydrofolic acid calcium salt content (Amount of VC 1000%, day 7, 25° C. and 40% humidity): 100.00% | (6S)-5-methyl tetrahydrofolic acid calcium salt content (Amount of VC 1000%, day 15, 25° C. and 40% humidity): 100.00% | (6S)-5-methyl tetrahydrofolic acid calcium salt content (Amount of VC 1000%, day 30, 25° C. and 40% humidity): 100.00% | (6S)-5-methyl tetrahydrofolic acid calcium salt content (Amount of VC 1000%, day 60, 25° C. and 40% humidity): 100.00% | (6S)-5-methyl tetrahydrofolic acid calcium salt content [30]: 99.95% | JK12A content [30]: 0.03% | (6S)-5-methyl tetrahydrofolic acid calcium salt content (Amount of VC 10000%, day 7, 25° C. and 40% humidity): 100.00% | (6S)-5-methyl tetrahydrofolic acid calcium salt content (Amount of VC 10000%, day 15, 25° C. and 40% humidity): 100.00% | (6S)-5-methyl tetrahydrofolic acid calcium salt content (Amount of VC 10000%, day 30, 25° C. and 40% humidity): 100.00% | (6S)-5-methyl tetrahydrofolic acid calcium salt content (Amount of VC 10000%, day 60, 25° C. and 40% humidity): 100.00%

calcium (6S)-5-methyltetrahydrofolate
response of mice ([5]; dosage of 15000 mg/kg): no abnormal response | maximum tolerable dose (MTD) ([5]; mice): greater than 15 g/kg | LD50 (median lethal dose) [6]: 2000 mg/kg
